Measurements reported in patent USRE47689E1, “Compounds for treating spinal muscular atrophy” (PTC Therapeutics, Inc., priority 2011, dated 2019).

Columns and labels:
[1] = tested on: gems (Smn-dependent nuclear speckles); assay: Gems count (Smn-dependent nuclear speckle count) assay; type: cell-based, human; conditions: SMA Type 1 patient fibroblasts; 48 hours; fluorescence microscopy
Text: The level of Smn protein directly correlates with the amount of nuclear foci, also known as gems, produced upon staining the cell with a fluorescently labeled anti-Smn antibody (Liu and Dreyfuss, EMBO J., 1996, 15:3555). Gems are multi-protein complexes whose formation is nucleated by the Smn protein and the gems count assay is used to evaluate the level of Smn protein in the cell. As described herein, the gems count assay is used to quantify the level of Smn protein in SMA patient fibroblast cells treated with a test compound.
Protocol: Cells are thawed and incubated in DMEM-10% FBS for 72 hours, then trypsinized, counted and resuspended to 100,000 cells/mL in DMEM-10% FBS. 2 mL of the cell suspension is plated in a 6-well cell culture plate with a sterile cover slip and incubated for 3 to 5 hours. Test compounds are serially diluted 3.16-fold in 100% DMSO to generate a 7-point dilution curve. […]
Cell culture medium is aspirated from the wells containing cover slips and gently washed three times with cold PBS. […] The number of gems is counted per ≥150 nuclei and % activation is calculated using DMSO and 10 nM bortezomib as controls. For each test compound, the cells are examined at all wavelengths to identify test compounds with inherent fluorescence.

[2] = tested on: full length and Δ7 SMN2 mRNAs; assay: Endogenous SMN2 mRNA RT-qPCR splicing assay in cultured cells; type: cell-based, human; conditions: GM03813 Type 1 SMA patient fibroblasts, increasing concentrations, 24 hrs
Procedure: The reverse transcription-quantitative PCR-based (RT-qPCR) assay is used to quantify the levels of the full length and Δ7 SMN2 mRNAs in primary cells and cell lines containing the SMN2 gene treated with a test compound.
Protocol. GM03813 SMA patient cells (5,000 cells/well) are seeded in 200 μL, of cell culture medium (DMEM plus 10% FBS) in 96-well flat-bottom plates and the plate is immediately swirled to ensure proper dispersal of cells, forming an even monolayer of cells. Cells are allowed to attach for at least 4-6 hrs. Test compounds are serially diluted 3.16-fold in 100% DMSO to generate a 7-point concentration curve. A solution of test compound (1 μL, 200× in DMSO) is added to each test well and 1 μL, DMSO is added to each control well. The plate is incubated for 24 hrs in a cell culture incubator (37° C., 5% CO2, 100% relative humidity). The cells are then lysed in Cells-To-Ct lysis buffer and the lysate is stored at −80° C.
SMN2-specific spliced products and GAPDH mRNA are identified using the following primers and probes in Table 5. Primer SMN FL Forward B (SEQ ID NO. 7) hybridizes to a nucleotide sequence in exon 7 (nucleotide 32 to nucleotide 54) and exon 8 (nucleotide 1 to nucleotide 4), primer SMN Δ7 Forward B (SEQ ID NO. 8) hybridizes to a nucleotide sequence in exon 6 (nucleotide 87 to nucleotide 111) and exon 8 (nucleotide 1 to nucleotide 3), primer SMN Reverse B (SEQ ID NO. 9) hybridizes to a nucleotide sequence in exon 8 (nucleotide 39 to nucleotide 62), probe SMN Probe B (SEQ ID NO. 10) hybridizes to a nucleotide sequence in exon 8 (nucleotide 7 to nucleotide 36). These primers and probe hybridize to nucleotide sequences common to human SMN1 and SMN2 mRNAs. Since the SMA patient cells used in Example 3 contain only the SMN2 gene, RT-qPCR can quantify only SMN2 full-length and Δ7 mRNA.
The SMN forward and reverse primers are used at final concentrations of 0.4 μM. The SMN probe is used at a final concentration of 0.15 μM. GAPDH primers are used at final concentrations of 0.1 μM and the probe at 0.075 μM. TaqMan gene expression assays were conducted at 20× concentrations with the GAPDH primers and Vic labeled probe provided as a 20× mixture. The One-Step RT-PCR kit was used as the Real-Time PCR Mix. […]
The increase of SMN2 FL and decrease in SMN2 Δ7 mRNAs relative to those in cells treated with vehicle control are determined from real-time PCR data using a modified ΔΔCt method (as described in Livak and Schmittgen, Methods, 2001, 25:402-8). The amplification efficiency E is calculated from the slope of the amplification curve for SMN2 FL, SMN2 Δ7, and GAPDH individually. The abundances of SMN2 FL, SMN2 Δ7, and GAPDH are then calculated as (1+E)^−Ct, where Ct is the threshold value for each amplicon. […]

Compound	number of gems relative to DMSO [1]	SMN2 FL mRNA relative to vehicle [2]	SMN2 Δ7 mRNA relative to vehicle [2]
CC(C)NCCc1ccc2cc(-c3nc4c(Cl)cccc4s3)c(=O)oc2c1 [Cpd 35, 3-(4-chloro-1,3-benzothiazol-2-yl)-7-[2-(propan-2-ylamino)ethyl]-2H-chromen-2-one]	progressively more gems relative to cells treated with DMSO	progressively more SMN2 FL mRNA	less SMN2 Δ7 mRNA
CCN1CCN(c2ccc3cc(-c4cn5cc(C)nc(C)c5n4)c(=O)oc3c2)C[C@@H]1C [Cpd 626, 3-(6,8-dimethylimidazo[1,2-a]pyrazin-2-yl)-7-[(3S)-4-ethyl-3-methylpiperazin-1-yl]-2H-chromen-2-one]	progressively more gems relative to cells treated with DMSO	progressively more SMN2 FL mRNA	less SMN2 Δ7 mRNA
